# Data as given in PMC5231411 (Science signaling, 2016).
# Tests used:
# [1] = tested on: mice; conditions: mouse, in vivo; cited from earlier work
# [2] = tested on: KOR; conditions: cited from earlier work
# [3] = tested on: mice; conditions: cited from earlier work
# [4] = tested on: C57BL/6 mice; assay: Warm water tail immersion; type: in vivo, mouse
# [5] = tested on: C57BL/6 mice; assay: Chloroquine phosphate-induced scratching; type: in vivo, mouse; conditions: NorBNI 10 mg/kg ip 24 hours prior; triazole 1.1 1 mg/kg sc
# [6] = tested on: male Fisher 344 rats; assay: Suppression of VTA ICSS by 1.8% lactic acid; type: in vivo, rat; conditions: triazole 1.1 24 mg/kg
# [7] = tested on: male Fisher 344 rats; conditions: NorBNI 32 mg/kg 24 hours prior; U50,488H 6 mg/kg
# [8] = target: human KOR (Homo sapiens, UniProt P41145); type: biochemical
# Chain of human KOR (P41145 whole entry, the tested form may be a part): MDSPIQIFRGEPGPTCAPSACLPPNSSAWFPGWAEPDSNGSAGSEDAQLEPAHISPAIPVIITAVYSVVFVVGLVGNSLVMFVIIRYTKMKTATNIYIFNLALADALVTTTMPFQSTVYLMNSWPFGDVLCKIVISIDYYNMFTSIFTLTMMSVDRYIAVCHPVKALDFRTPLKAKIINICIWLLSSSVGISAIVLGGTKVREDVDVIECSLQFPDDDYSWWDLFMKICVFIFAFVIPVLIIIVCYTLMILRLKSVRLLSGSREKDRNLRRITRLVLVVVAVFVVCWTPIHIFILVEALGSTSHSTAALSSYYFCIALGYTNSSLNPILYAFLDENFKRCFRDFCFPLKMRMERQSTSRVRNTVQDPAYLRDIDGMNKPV
# [9] = target: KOR (OPRK1) βarrestin2 recruitment (Homo sapiens, UniProt P41145); assay: βarrestin2 enzyme fragment complementation assay; type: cell-based
# Chain of KOR (OPRK1) βarrestin2 recruitment (P41145 whole entry, the tested form may be a part): as above
# [10] = tested on: KOR; assay: Bias analysis, G protein; conditions: reference U50,488H
# [11] = target: striatal KOR (Mus musculus, UniProt P33534); type: binding
# Chain of striatal KOR (P33534 whole entry): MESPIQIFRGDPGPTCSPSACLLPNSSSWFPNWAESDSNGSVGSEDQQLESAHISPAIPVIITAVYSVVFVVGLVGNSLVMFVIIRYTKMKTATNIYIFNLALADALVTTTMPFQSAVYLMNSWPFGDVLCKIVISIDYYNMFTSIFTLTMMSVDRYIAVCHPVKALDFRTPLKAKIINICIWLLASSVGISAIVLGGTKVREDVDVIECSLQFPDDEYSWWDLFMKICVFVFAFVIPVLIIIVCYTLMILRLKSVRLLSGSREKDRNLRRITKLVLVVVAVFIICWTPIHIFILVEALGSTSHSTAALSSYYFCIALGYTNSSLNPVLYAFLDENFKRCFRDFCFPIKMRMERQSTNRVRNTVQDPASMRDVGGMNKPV
# [12] = target: KOR in mouse striatum (Mus musculus, UniProt P33534); assay: [35S]GTPγS binding in mouse striatal membranes; type: biochemical
# Chain of KOR in mouse striatum (P33534 whole entry): as above
# [13] = tested on: dopamine release in nucleus accumbens; conditions: mouse brain slices
# [14] = tested on: dopamine concentration in nucleus accumbens; assay: Microdialysis of nucleus accumbens dopamine in freely moving mice; type: in vivo, mouse; conditions: triazole 1.1 15 mg/kg ip
# [15] = tested on: C57BL/6J male mice; conditions: mouse, in vivo
# [16] = tested on: KOR; conditions: compared to reference agonist U69,593; cited from earlier work
# [17] = after systemic dosing; cited from earlier work
molecule,measurement,setting,value
RB-64,Antinociceptive efficacy and locomotor activity,[1],preserves antinociceptive efficacy without decreasing locomotor activity
same,Bias for G protein signaling over βarrestin2 recruitment,[2],displays bias for G protein signaling over βarrestin2 recruitment
same,Conditioned place aversion (CPA),[3],produces conditioned place aversion (CPA) in mice
"Oc1ccc2c3c1O[C@H]1c4[nH]c5c(c4C[C@@]4(O)[C@@H](C2)N(CC2CC2)CC[C@]314)C[C@@]1(O)[C@H]2Cc3ccc(O)c4c3[C@@]1(CCN2CC1CC1)[C@H]5O4 [NorBNI, Norbinaltorphimine, reference compound]",Antagonism of agonist-induced antinociception (tail flick),"[4]; NorBNI 15 mg/kg ip, 10 min before U50,488H or triazole 1.1",fully antagonized the antinociception produced by both compounds
same,Blockade of antipruritic effects of triazole 1.1,[5],blocked the antipruritic effects of triazole 1.1
same,Blockade of analgesic effect of triazole 1.1 on lactic acid-suppressed ICSS,[6]; NorBNI 32 mg/kg prior,completely blocked
same,"Blockade of U50,488H effects on ICSS",[7],blocked
"Cc1ccc(CSc2nnc(-c3ccccn3)n2Cc2ccco2)cc1C(F)(F)F [Triazole 1.1, 2-(4-(furan-2-ylmethyl)-5-((4-methyl-3-(trifluoromethyl)benzyl)thio)-4H-1,2,4-triazol-3-yl)pyridine]",[35S]GTPγS binding assay Emax,[8],101 ± 5%
same,βarrestin2 enzyme fragment complementation assay Emax,[9],98 ± 4%
same,Bias factor G/β (10^ΔΔLogR),[10]; G protein/βarrestin2,28
same,ΔΔLogR (ΔLogR of [35S]GTPγS − ΔLogR of βarrestin2 EFC),[10]; with 95% CI,1.44 (1.29 to 1.60)
same,Response latency (%MPE) in warm water tail flick assay,"[4]; C57BL/6 mice, sc, 20 min after injection, 10-s cutoff",produced an increase in response latency in a dose-dependent manner
same,Antinociceptive efficacy in KOR-KO mice (tail flick),"[4]; KOR-KO mice, 30 mg/kg, ip",Neither drug had efficacy in KOR-KO mice
same,"Reduction of specific [3H]U69,593 binding in striatum compared to untreated mice",[11],40%
same,EC50,[12],497 ± 34 nM
same,"Effect on evoked dopamine release, nucleus accumbens core",[13]; 10-1000 nM,no measureable decreases in the core
same,"Effect on evoked dopamine release, nucleus accumbens shell",[13]; 10-1000 nM,a modest decrease in the shell only at the highest concentration tested
same,"EC50 for decrease in dopamine release, nucleus accumbens core",[13]; 10-1000 nM cumulative,nonconvergence of curves
same,"EC50 for decrease in dopamine release, nucleus accumbens shell",[13]; 10-1000 nM cumulative,nonconvergence of curves
same,Effect on dopamine concentration in nucleus accumbens (microdialysis),[14],did not significantly affect dopamine concentrations
same,Effect on lactic acid-induced suppression of ICSS (EF50 and Rmax),"[6]; […] lactic acid ip, ketoprofen 1 mg/kg sc, U50,488H 6 mg/kg",suppressed the effect of lactic acid compared to vehicle administration
same,Locomotor activity (ambulation) in open field over 1 hour,[15],did not affect locomotor activity at any of the doses tested
same,Preference for G protein signaling over βarrestin2 recruitment,[16],displays a preference for G protein signaling over βarrestin2 recruitment
same,Brain penetration (tissue content in whole brain),[17],brain-penetrant
